15 compounds from patent US20050250709A1, “Anti-neoplastic agents, combination therapies and related methods” (Bionaut Pharmaceuticals, priority 2003, published 2005) can be followed below.

Counter-ions that a name gives are not always drawn.

The test system of data set [1] is EGF-responsive gene expression. Briefly: EGF-responsive gene expression in recovered reporter cell lines. It counts as cell-based. The method, then: (§1) Cancer cell lines (Panc1, for pancreatic cancer, and A549 for non-small cell lung carcinoma) were transfected with the construct depicted in FIG. 1. The retroviral vector contained a […] gene (a negative selection marker), a zeocin resistance marker (a positive selection marker) and a gene encoding beta-galactosidase “β-gal”, as a reporter gene.
Cells were grown to a significant cell density and exposed to zeocin, so as to select for cells expressing the zeocin marker in the presence of high levels of extracellular signaling. Cells were also exposed to a growth factor, such as EGF, insulin or IGF, although in some instances, the growth factor had only minor effects on gene expression compared to the generalized effect of extracellular signaling. The selected cell cultures were greatly depleted of cells by zeocin treatment, as the vast majority of cells were eliminated by the zeocin. […] Under these conditions, cells were exposed to an agent such as ganciclovir that causes lethality in TK+ cells. This selection step eliminated those cells containing a nucleic acid construct that is expressed at significant levels even in low extracellular signaling conditions. The resulting cells were then used for further study.
FIGS. 3 through 9 depict the results from a series of experiments characterizing the recovered cell lines. […]

The next data set deals with HCT-116/Colon. Briefly: anti-proliferative effect, HCT-116 colon cancer cell line. The class given is cell-based. The following applies: Homo sapiens. The source says: (§2) The inhibition of reporter activity was later correlated with an anti-proliferative effect in representative colon, lung, prostate, cervical, renal, uterine, breast, and pancreatic cancer cell lines as shown in table 1.

The next data set relates to MES-SA-DX5/Uterine. In words: anti-proliferative effect, MES-SA-DX5 uterine cancer cell line. It counts as cell-based. The following applies: Homo sapiens.
Excerpt: as §2

The test system of the next data set is SK-MES/Lung. In words: anti-proliferative effect, SK-MES lung cancer cell line. The class given is cell-based.
Excerpt: as §2

The subject of another data set is PC3/Prostate. Briefly: anti-proliferative effect, PC3 prostate cancer cell line. The class given is cell-based.
Excerpt: as §2

In a further data set the test system is HIF-2α protein. Briefly: level of HIF-2α protein in cancer cells. The class given is cell-based.
Another data set deals with LnCap/Prostate. Briefly: anti-proliferative effect, LnCap prostate cancer cell line. The following applies: Homo sapiens. The class given is cell-based.
Excerpt: as §2

In a further data set the test system is C-33A/Cervical. In words: anti-proliferative effect, C-33A cervical cancer cell line. The class given is cell-based. The following applies: Homo sapiens.
Excerpt: as §2

A further data set relates to A549/Lung. Briefly: anti-proliferative effect, A549 lung cancer cell line. It counts as cell-based. The following applies: Homo sapiens.
Excerpt: as §2

For a further data set, the system named is DU-145/Prostate. Briefly: anti-proliferative effect, DU-145 prostate cancer cell line. The class given is cell-based. The following applies: Homo sapiens.
Excerpt: as §2

The next data set concerns MCF-7/Breast. In words: anti-proliferative effect, MCF-7 breast cancer cell line. The class given is cell-based. The following applies: Homo sapiens, MCF7.
Excerpt: as §2

The test system of another data set is MES-SA/Uterine. In words: anti-proliferative effect, MES-SA uterine cancer cell line. It counts as cell-based. The following applies: Homo sapiens.
Excerpt: as §2

The subject of the next data set is HT-29/Colon. Briefly: anti-proliferative effect, HT-29 colon cancer cell line. It counts as cell-based. The following applies: Homo sapiens.
Excerpt: as §2
The ouabain concentration required to achieve an antiproliferative effect in cells of the HT29 colon cancer cell line (FIG. 20) is decreased five-fold in the presence of bicalutamide (Casodex).

The next data set concerns Caki-1/Renal. Briefly: anti-proliferative effect, Caki-1 renal cancer cell line. The class given is cell-based. The following applies: Homo sapiens.
Excerpt: as §2

Another data set concerns Panc-1. Briefly: anti-proliferative effect, Panc-1 pancreatic cancer cell line. The class given is cell-based. The following applies: Homo sapiens; Panc-1, anti-proliferative.
Excerpt: as §2

In data set [2] the test system is EGF, HIF responsive cell line (HIF-responsive reporter gene). Briefly: reporter gene assay in EGF, HIF responsive cancer cell line. The following applies: for effect on regulated reporter gene expression (screen): single agents, screen of thousands of compounds. It counts as cell-based. The method, then: as §1
Cells were grown to a significant cell density and exposed to zeocin, so as to select for cells expressing the zeocin marker in the presence of high levels of extracellular signaling. […] Under these conditions, cells were exposed to an agent such as ganciclovir that causes lethality in TK+ cells. This selection step eliminated those cells containing a nucleic acid construct that is expressed at significant levels even in low extracellular signaling conditions. The resulting cells were then used for further study.
An EGF, HIF responsive cell line was screened for compounds affecting the regulated gene expression. Thousands of compounds were screened.
For orientation: Reporter assays use an easily measured gene product as a stand-in for the process of interest.

For data set [3], the system named is several different cancer cell lines. Briefly: proliferation of cancer cell lines (several lines, summary). It counts as cell-based. The following applies: range over cell lines, read-out: IC50 across several different cancer cell lines. The method, then: The IC50 measured for ouabain across several different cancer cell lines ranged from about 80 nM to about 300 nM. The concentration at which a cardiac glycoside is effective as part of an antiproliferative treatment may be further decreased by combination with an additional agent that negatively regulates HIF-responsive genes, such as a redox effector or a steroid signal modulator. For example, as shown herein, the concentration at which a cardiac glycoside (ouabain) is effective for inhibiting proliferation of cancer cells is decreased 5-fold by combination with a steroid signal modulator (Casodex). Therefore, in certain embodiments, the invention provides combination therapies of cardiac glycosides with, for example, steroid signal modulators and/or redox effectors. Additionally, cardiac glycosides may be combined with radiation therapy, taking advantage of the radiosensitizing effect that many cardiac glycosides have.

Take `COc1cc2ncnc(Nc3ccc(F)c(Cl)c3)c2cc1OCCCN1CCOCC1` [Iressa]: in data set [1], the EGF-responsive gene expression entry is listed as “inhibited”.
Regarding `O=C(Nc1ccc([N+](=O)[O-])cc1Cl)c1cc(Cl)ccc1O` [Niclosamide, niclosamide], the IC50 (usually the concentration that inhibits the measured activity by half) with HCT-116/Colon turned out to be 0.8 µM; with MES-SA-DX5/Uterine it was 6 µM; in the data set on SK-MES/Lung, 2 µM; with PC3/Prostate it was 5 µM; with LnCap/Prostate, 2 µM; with C-33A/Cervical, 5 µM. In addition, the IC50 in the data set on A549/Lung worked out at 1.5 µM; with DU-145/Prostate it was 5 µM; with MCF-7/Breast, 2.5 µM; with MES-SA/Uterine it was 9 µM; in the data set on HT-29/Colon it was 8 µM; in the data set on Caki-1/Renal, 1.5 µM. The compound further showed an IC50 in the data set with Panc-1 of 5 µM. For the same compound, the serum half-life result in the data set “serum half-life” is given as “short”. Also, the “level of HIF-2α protein” value with HIF-2α protein was “decrease”. The “effect on regulated reporter gene expression (screen)” value (“effect” below) in data set [2] is “effective”.
Take `C[C@@H]1O[C@@H](O[C@H]2C[C@@H](O)[C@]3(CO)[C@H]4[C@H](O)C[C@]5(C)[C@@H](C6=CC(=O)OC6)CC[C@]5(O)[C@@H]4CC[C@]3(O)C2)[C@H](O)[C@H](O)[C@H]1O` [Ouabain, ouabain]: the IC50 was 0.15 µM in the data set with HCT-116/Colon; 0.08 µM with MES-SA-DX5/Uterine; 0.1 µM in the data set on SK-MES/Lung; 0.15 µM in the data set on PC3/Prostate; 0.15 µM in the data set on LnCap/Prostate; 0.08 to 0.3 µM in [3]. For the same compound, the IC50 is 0.1 µM in the data set on C-33A/Cervical; 0.3 µM in the data set with A549/Lung; 0.3 µM in the data set on DU-145/Prostate; 0.1 µM in the data set with MCF-7/Breast; 0.08 µM in the data set on MES-SA/Uterine; greater than 0.8 µM with HT-29/Colon. For the same compound, the half-inhibitory concentration (IC50) in the data set on Caki-1/Renal and in the data set on Panc-1 was 0.15 µM throughout. The “required dose for inhibition of reporter activity relative to cardiotonic dose” value in [2] is on record as “well below the dose required for ouabain as a cardiotonic agent”. The “effect” value in [2] is on record as “effective”.
In the case of `CCCCC(CC)CNC(=N)NC(=N)NCCCCCCNC(=N)NC(=N)NCC(CC)CCCC` (stereo not drawn) [alexidine dihydrochloride], the “effect” value in data set [2] is given as “effective”.
Consider `CC(C)/N=c1\cc2n(-c3ccc(Cl)cc3)c3ccccc3nc-2cc1Nc1ccc(Cl)cc1` [clofazimine], for which, in data set [2], the “effect” value is reported as “effective”.
Take `Clc1ccccc1C(c1ccccc1)(c1ccccc1)n1ccnc1` [clotrimazole]: the “effect” value in data set [2] is given as “effective”.
On the same count and under the same terms, under `C/C=C(/C(=C/C)c1ccc(O)cc1)c1ccc(O)cc1` [dienestrol] stands “effective”; under `CC/C(=C(/CC)c1ccc(O)cc1)c1ccc(O)cc1` [diethylstilbestrol], “effective”.
The same measure, in the same setting: with `C[C@]12CC[C@H](O)C[C@H]1CC[C@@H]1[C@@H]2CC[C@]2(C)[C@@H](C3=CC(=O)OC3)CC[C@]12O` [digitoxigenin] the entry was “effective”; with `C[C@H]1O[C@@H](O[C@H]2[C@@H](O)C[C@H](O[C@H]3[C@@H](O)C[C@H](O[C@H]4CC[C@@]5(C)[C@H](CC[C@@H]6[C@@H]5C[C@@H](O)[C@]5(C)[C@@H](C7=CC(=O)OC7)CC[C@]65O)C4)O[C@@H]3C)O[C@@H]2C)C[C@H](O)[C@@H]1O` [digoxin], “effective”; with `Clc1ccc(COC(Cn2ccnc2)c2ccc(Cl)cc2Cl)cc1` (stereo not drawn) [econazole nitrate], “effective”.
Still for that read-out and setting: with `CC(=O)O[C@H]1C[C@H](O[C@H]2[C@@H](O)C[C@H](O[C@H]3[C@@H](O)C[C@H](O[C@H]4CC[C@@]5(C)[C@H](CC[C@@H]6[C@@H]5C[C@@H](O)[C@]5(C)[C@@H](C7=CC(=O)OC7)CC[C@]65O)C4)O[C@@H]3C)O[C@@H]2C)O[C@H](C)[C@H]1O[C@@H]1O[C@H](CO)[C@@H](O)[C@H](O)[C@H]1O` [lanatoside C] the entry was “effective”; with `OC(c1cc(C(F)(F)F)nc2c(C(F)(F)F)cccc12)C1CCCCN1` (stereo not drawn) [mefloquine hydrochloride], “effective”; with `CC1=CC(=O)c2ccccc2C1=O` [menadione], “effective”.
Consider `CCCC(C(=O)OCCN(CC)CC)(c1ccccc1)c1ccccc1` [proadifen hydrochloride], for which the “effect” value in [2] is on record as “effective”.
